{
  "source": "patent US8107711B2",
  "about": "“User interface method and system for management and control of automated image processing in high content screening or high throughput screening” (Vala Sciences, Inc., priority 2008, dated 2012)",
  "test_system": "IL-8 mRNA",
  "experiment": "IL-8 mRNA assay (Quantigene reagent set) quantified by automated image processing",
  "format": "cell-based",
  "description": "Through use of inexpensive reagents and simple protocols a transcription assay can be conducted in which mRNA is synthesized and then captured. The location and number of individual mRNA species captured can be visualized in cells and tissue sections by fluorescence-based detection and quantified by automated image processing.\nFor visualization in images, a probe is used which binds to target mRNA species with very high specificity. It is possible to generate probes to virtually any known sequence. Preferably, such probes are hybridized to the target mRNAs in cell or tissue samples that have been fixed and permeabilized. A fluorescent reagent may then added, which binds to the probe. When slides and well plates containing cultured cells are processed in this manner, and viewed with fluorescence microscopy, bright spots (mRNA loci) are apparent that correspond to individual copies of the target mRNA.\nTo quantify gene transcription, the mRNA loci can be individually counted for each cell. While this can be done manually, by loading such images in a general purpose image analysis program, manual analysis is very laborious and time consuming due to fatigue and inconsistency between researchers. A convenient, user-friendly, and accurate alternative may be provided by an image processing algorithm, which may be in the form of a Windows® compatible, Java-based software system, specifically engineered for this application. With reference to FIG. 1, for example, such a system identifies individual cells, and quantifies the number of mRNA loci on a per cell basis in fields of view imaged for nuclei (shown in blue with DAPI staining), and for mRNA (shown in green using fluorescent reagents). Results produced by such a system may be input into a quantitative modeling system (such as a spreadsheet process) in order to organize, quantify, model, and present the results for interpretation and analysis.\nFIG. 2 illustrates the performance of an mRNA assay and quantification by an image processing algorithm in an experimental setting, using a Quantigene® reagent set available from Panomics, Inc., Fremont, Calif. and an automated image processing system available from Vala Sciences, Inc. In this assay, cells were exposed to different concentrations of phorbol 12-myristate 13-acetate (PMA), and analyzed for the copy number of IL-8 mRNA. For control cells (exposed to 0 PMA), essentially no IL-8 mRNA were detected (0.05/cell). In contrast, exposure to PMA led to a dramatic increase in the presence of the loci with an EC50 of between 0.1 and 1 ng/ml PMA.\nFIG. 6 illustrates in a general way how an image processing algorithm may operate to obtain results from images in the source folder. An example of one such algorithm designed for processing images of mRNA transcription is the CyteSeer™-ViewRNA process available from Vala Sciences, Inc. The algorithm starts with a nuclear image (such as those in the left panels of FIGS. 1 and 2), and identifies all of the nuclei within the field of view. A nuclear mask for each cell is established. […] One or more sets of experimental data may then be calculated by the automated image processing system, on a per cell basis, using the result images or masks. Preferably, these experimental data are presented and arranged according to a file convention and are placed into one or more files that can be transported, loaded, or otherwise made available to a quantitative modeling system (for example, a spreadsheet process). […]",
  "data": [
    {"smiles": "CCCCCCCCCCCCCC(=O)O[C@@H]1[C@@H](C)[C@@]2(O)[C@@H](C=C(CO)C[C@]3(O)C(=O)C(C)=C[C@@H]23)[C@@H]2C(C)(C)[C@]12OC(C)=O", "note": "[PMA, phorbol 12-myristate 13-acetate]", "values": [
      {"measurement": "RNA spot count", "setting": "0.1 ng/ml PMA, well E15", "result": 14.3, "unit": "spots/cell"},
      {"measurement": "fold increase in Area Rm", "setting": "1 ng/ml PMA vs control well C15", "result": 3000, "unit": "fold"},
      {"measurement": "RNA spot count", "setting": "1 ng/ml PMA, well G15", "result": 84.1, "unit": "spots/cell"},
      {"measurement": "Area Rm, the average area, per cell, of the RNA mask", "setting": "1 ng/ml PMA, well G15 (control well C15 <1)", "result": "> 1100"},
      {"measurement": "fold increase in TII Ri Rm, the total intensity of the spots/cell", "setting": "PMA vs control (Table in FIG. 12)", "result": 8000, "unit": "fold"}
    ]}
  ]
}
